Results taken from PMC8205030, “Methoxy and bromo scans on N-(5-methoxyphenyl) methoxybenzenesulphonamides reveal potent cytotoxic compounds, especially against the human breast adenocarcinoma MCF7 cell line” (Journal of Enzyme Inhibition and Medicinal Chemistry, 2021).
In brackets after ≈: the same amount, converted by molar mass. Like-named read-outs stand apart in the source and are kept apart here. Values belong to the compound of their own block, whether it stands above or below them.

Experiments:
[1] = system: HeLa (human cervical carcinoma) cells; assay: Cell growth assay (XTT), HeLa; type: cell-based; details: 72 h drug exposure, read-out: Antiproliferative activity IC50 HeLa
Description: (§1) The presence of mycoplasma was routinely checked with MycoAlert kit (Lonza-Cambrex) and only mycoplasma-free cells were used in the experiments. Tumour cell lines were kindly provided by Dr Faustino Mollinedo from Centro de Investigaciones Biológicas Margarita Salas, Madrid, Spain. To determine cell growth, cells in exponential growth phase were seeded (100 µL/well in 96-well plates) with appropriate cell concentration (1.5 × 10^4 cells/mL for MCF7, HeLa and HEK-293 and 3 × 10^4 cells/mL for HT-29) in complete DMEM or RPMI 1640 medium (see above) at 37 °C and 5% CO2 atmosphere. After 24 h incubation, to allow cells to attach to the plates, all compounds were added at 1 µM concentration (10 µL/well in 96-well plates) and the effect on the proliferation was evaluated 72 h post-treatment. Compounds showing antiproliferative effects at tested concentration were selected for IC50 calculation (50% inhibitory concentration compared to the untreated controls) from 10^−5 to 10^−10 M concentration. Nonlinear curves fitting the experimental data were carried out for each compound. […] A freshly prepared mixture solution of XTT labelling reagent with 0.02% (v/v) PMS (N-methyl-dibenzopyrazine methyl sulfate) electron coupling reagent was added to cells (50 µL/well in 96-well plates, the total volume of 160 µL/well) and were incubated during the corresponding time according to each cell line (4 h for MCF7 and HeLa and 6 h for HT-29 and HEK-293) in a humidified atmosphere (37 °C, 5% CO2). The absorbance of the formazan product generated was measured at a test wavelength of 450 nm using a multi-well plate reader (Ultra Evolution, Tecan, Männedorf, Suiza). Compounds were dissolved in DMSO and the final solvent concentrations never exceeded 0.5% (v/v). The control wells included treated cells with 0.5% (v/v) DMSO and the positive control. 10 µM verapamil was included as a control for the HT-29 cell line. Measurements were performed in triplicate, and each experiment was repeated three times.

[2] = Aqueous solubility (saturation shake-flask, UV); type: physicochemical; details: aqueous buffer, thermodynamic from solid, pH 7.0 phosphate buffer, room temperature
Description: The aqueous solubility was determined in a Helios-α UV-320 Spectrophotometer Thermo-Spectronic, Thermo Fischer Scientific, Waltham, MA, USA) using an approach based on the saturation shake-flask method. 1–2 mg of each selected compound was suspended in 300 µL pH 7.0 buffer and stirred for 48 h at room temperature. The resulting mixture was filtered through a […] filter to discard the insoluble residues. A scan between 270 and 400 nm for the tested compound was performed and three wavelengths of maximum absorbance were selected. Calibration curves were performed at these wavelengths and the concentration in the supernatant was measured by UV absorbance. The final value was given as the average of the three measurements.

[3] = target: T1, microtubular protein isolated from calf brain (Bos taurus, UniProt P81947+Q6B856); assay: Inhibition of tubulin polymerisation (turbidity); type: biochemical; details: for TPI % 10 µM: 10 µM compound, 1.5 mg/mL microtubular protein; for IC50: in vitro tubulin polymerisation inhibition, read-out: TPI IC50
T1 construct: isolated from calf brain according to the modified Shelanski method; from tissue; host or cells: calf brain
Description: Microtubular protein was isolated from calf brain according to the modified Shelanski method[23]^,[24] by two cycles of temperature-dependent assembly/disassembly and stored at −80 °C. Before each use, protein concentration is determined by Bradford method[25] taking BSA as standard. Tubulin polymerisation was monitored using a Helios α spectrophotometer by measuring the increase in turbidity at 450 nm, caused by a shift from 4 °C to 37 °C, which allows the in vitro microtubular protein to depolymerise and to polymerise, respectively. The assay was carried out in quartz cuvettes containing 1.5 mg/mL microtubular protein and the ligand (except for control cuvette with only DMSO at the same concentration) in a mixture of 0.1 M MES buffer, 1 mM EGTA, 1 mM MgCl2, 1 mM β-ME, and 1.5 mM GTP at pH 6.7 (final volume 500 µL). Cuvettes were preincubated at 20 °C for 30 min, to allow ligand binding to tubulin, and subsequently cooled on ice for 10 min. Then, the experiment starts at 4 °C to establish the initial baseline. The assembly process was initiated by a temperature shift to 37 °C and the turbidity produced by tubulin polymerisation can be measured by an absorbance increase. After reaching a stable plateau, the temperature was switched back to 4 °C to return to the initial absorption values (to confirm the reversible nature of the monitored process and to determine whether or not the microtubular protein has stabilized). The difference in amplitude between the stable plateau and the initial baseline of the curves was taken as the degree of tubulin polymerisation for each experiment. […] All compounds were tested at 10 µM concentration. IC50 values were calculated for compounds that inhibit tubulin polymerisation more than 50% at 10 µM. […] All the measurements were carried out in at least two independent experiments using microtubular protein from different preparations.

[4] = system: MCF7 (human breast carcinoma) cells; assay: Cell growth assay (XTT), MCF7; type: cell-based; details: for IC50: Homo sapiens, MCF7, 72 h drug exposure, XTT, read-out: Antiproliferative activity IC50 MCF7; for Fold more potent against MCF7 than against HeLa: ratio of IC50 values
Description: as §1

[5] = system: HT-29 (human colon carcinoma) cells; assay: Cell growth assay (XTT), HT-29, alone or with verapamil; type: cell-based
Description: as §1, with “Compounds showing antiproliferative effects at tested concentration were selected for IC50 calculation (50% inhibitory concentration compared to the untreated controls) from 10^−5 to 10^−10 M concentration.” left out

[6] = system: HEK293 (human embryonic kidney) cells; assay: Cell growth assay (XTT), non-tumorigenic HEK293; type: cell-based; details: for IC50: Homo sapiens, HEK293, non-tumorigenic cell line, 72 h, XTT, read-out: Antiproliferative activity IC50 HEK293
Description: as §1

[7] = 72 h, in the presence of Pgp/MDR1 inhibitor verapamil (10 µM), read-out: Antiproliferative activity IC50 HT-29 Verap
[8] = Homo sapiens, HT-29, 72 h drug exposure, XTT, read-out: Antiproliferative activity IC50 HT-29

T1 sequence (Q6B856 whole entry): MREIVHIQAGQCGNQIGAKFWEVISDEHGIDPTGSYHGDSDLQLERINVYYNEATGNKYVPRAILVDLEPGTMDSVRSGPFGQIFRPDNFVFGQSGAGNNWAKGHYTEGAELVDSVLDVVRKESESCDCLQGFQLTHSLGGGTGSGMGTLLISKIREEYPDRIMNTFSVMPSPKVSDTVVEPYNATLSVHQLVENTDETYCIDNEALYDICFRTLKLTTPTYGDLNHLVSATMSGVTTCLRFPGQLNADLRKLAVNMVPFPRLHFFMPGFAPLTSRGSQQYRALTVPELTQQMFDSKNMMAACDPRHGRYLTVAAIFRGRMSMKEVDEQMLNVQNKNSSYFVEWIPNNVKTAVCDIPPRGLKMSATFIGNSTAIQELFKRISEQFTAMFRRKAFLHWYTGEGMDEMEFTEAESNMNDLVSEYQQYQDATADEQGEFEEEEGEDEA
T1 sequence (P81947 whole entry): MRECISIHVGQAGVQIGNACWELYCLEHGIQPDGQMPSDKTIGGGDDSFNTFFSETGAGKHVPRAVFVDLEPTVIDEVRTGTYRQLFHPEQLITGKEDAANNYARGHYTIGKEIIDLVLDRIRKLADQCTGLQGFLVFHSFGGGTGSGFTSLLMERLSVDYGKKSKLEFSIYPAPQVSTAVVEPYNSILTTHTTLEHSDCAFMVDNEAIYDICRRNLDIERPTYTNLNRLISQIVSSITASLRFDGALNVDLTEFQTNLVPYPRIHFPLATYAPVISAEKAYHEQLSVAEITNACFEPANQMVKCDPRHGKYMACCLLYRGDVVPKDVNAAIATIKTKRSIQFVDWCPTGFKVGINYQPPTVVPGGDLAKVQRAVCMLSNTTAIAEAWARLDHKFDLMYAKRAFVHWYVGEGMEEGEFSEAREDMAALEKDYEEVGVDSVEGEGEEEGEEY

SMILES: COc1ccc(S(=O)(=O)N(CC#N)c2cc(OC)c(OC)cc2Br)cc1 [Compound 16, N-(2-bromo-4,5-dimethoxyphenyl)-N-(cyanomethyl)-4-methoxybenzenesulphonamide]
IC50 [1]: 0.407 µM | solubility at 48 h [2]: 13 µg/mL (≈ 29.5 µM) | TPI % 10 µM [3]: 16% | IC50 [3]: > 10 µM | melting point: 76 to 84 °C | IC50 [4]: 0.575 µM | IC50 [5, 7]: 0.75 µM | IC50 [5, 8]: 0.36 µM

SMILES: COc1ccc(S(=O)(=O)Nc2cc(OC)ccc2OC)cc1 [Compound 21, N-(2,5-dimethoxyphenyl)-4-methoxybenzenesulphonamide]
IC50 [1]: 0.227 µM | solubility at 48 h [2]: 13 µg/mL (≈ 40.2 µM) | TPI % 10 µM [3]: 0% | IC50 [3]: > 10 µM | melting point: 114 to 115 °C | IC50 [4]: 0.35 µM | IC50 [5, 8]: 0.187 µM

SMILES: COc1ccc(S(=O)(=O)Nc2cc(OC)c(Br)cc2OC)cc1 [Compound 23, N-(4-bromo-2,5-dimethoxyphenyl)-4-methoxybenzenesulphonamide]
IC50 [1]: 0.045 µM | solubility at 48 h [2]: 9 µg/mL (≈ 22.4 µM) | TPI % 10 µM [3]: 65% | IC50 [3]: 6.9 µM | melting point: 118 to 119 °C | Selectivity index HEK293 vs HeLa and MCF7 tumour cells [6]: 0.5 to 2 fold | IC50 [6]: 0.043 µM | IC50 [4]: 0.025 µM | IC50 [5, 7]: 0.03 µM | IC50 [5, 8]: 0.072 µM

SMILES: COc1ccc(S(=O)(=O)N(C)c2cc(OC)c(OC)cc2OC)cc1 [Compound 33, 4-Methoxy-N-methyl-N-(2,4,5-trimethoxyphenyl)benzenesulphonamide]
IC50 [1]: 0.413 µM | solubility at 48 h [2]: 157 µg/mL (≈ 427 µM) | TPI % 10 µM [3]: 0% | IC50 [3]: > 10 µM | melting point: 137 to 143 °C | IC50 [4]: 0.099 µM | Fold more potent against MCF7 than against HeLa [4]: 4–7 fold | IC50 [5, 7]: 0.577 µM | IC50 [5, 8]: 0.5 µM

SMILES: COc1ccc(S(=O)(=O)N(CC#N)c2cc(OC)c(OC)cc2OC)cc1 [Compound 35, N-(cyanomethyl)-4-methoxy-N-(2,4,5-trimethoxyphenyl)benzenesulphonamide]
IC50 [1]: 0.5 µM | solubility at 48 h [2]: 15 µg/mL (≈ 38.2 µM) | TPI % 10 µM [3]: 5% | IC50 [3]: > 10 µM | melting point: 173 to 180 °C | IC50 [4]: 0.067 µM | Fold more potent against MCF7 than against HeLa [4]: 4–7 fold | IC50 [5, 7]: 0.415 µM | IC50 [5, 8]: 0.365 µM

Further lines, with some results ahead:

IC50 [1]: 0.177 µM | solubility at 48 h [2]: 25 µg/mL (≈ 74.1 µM) | TPI % 10 µM [3]: 4% | IC50 [3]: > 10 µM | melting point: 105 to 110 °C | IC50 [4]: 0.153 µM | IC50 [5, 7]: 0.305 µM | IC50 [5, 8]: 0.25 µM
SMILES: COc1ccc(S(=O)(=O)N(C)c2cc(OC)ccc2OC)cc1 [Compound 22, N-(2,5-dimethoxyphenyl)-4-methoxy-N-methylbenzenesulphonamide]
Selectivity index HEK293 vs HeLa and MCF7 tumour cells [6]: 3- to 5 fold | IC50 [6]: 0.517 µM

IC50 [1]: 0.033 µM | solubility at 48 h [2]: 1 µg/mL (≈ 2.4 µM) | TPI % 10 µM [3]: 59% | IC50 [3]: 7.6 µM | melting point: 132 to 133 °C | IC50 [4]: 0.019 µM | IC50 [5, 7]: 0.16 µM | IC50 [5, 8]: 0.123 µM
SMILES: COc1ccc(S(=O)(=O)N(C)c2cc(OC)c(Br)cc2OC)cc1 [Compound 24, N-(4-bromo-2,5-dimethoxyphenyl)-4-methoxy-N-methylbenzenesulphonamide]
Selectivity index HEK293 vs HeLa and MCF7 tumour cells [6]: 3- to 5 fold | IC50 [6]: 0.091 µM

IC50 [1]: 0.41 µM | solubility at 48 h [2]: 213 µg/mL (≈ 603 µM) | TPI % 10 µM [3]: 3% | IC50 [3]: > 10 µM | melting point: 112 to 114 °C | IC50 [4]: 0.58 µM | IC50 [5, 7]: 0.553 µM | IC50 [5, 8]: 0.36 µM
SMILES: COc1ccc(S(=O)(=O)Nc2cc(OC)c(OC)cc2OC)cc1 [Compound 32, 4-Methoxy-N-(2,4,5-trimethoxyphenyl)benzenesulphonamide]
